test system: HIV-1 IIIB (T-tropic, CXCR4 utilizing); assay: HOS HIV-1 infectivity assay; assay type: cell-based; conditions: Human immunodeficiency virus 1, IIIB; as determined by the infectivity assay; strain not stated in Table 2; read-out: Activity Level
Experimental: Compounds were profiled against two HIV-1 viruses, the M-tropic (CCR5 utilizing) Ba-L strain and the T-tropic (CXCR4 utilizing) IIIB strain. Both viruses were propagated in human peripheral blood lymphocytes. Compounds were tested for there ability to block infection of the HOS cell line (expressing hCXCR4/hCCR5/hCD4/pHIV-LTR-luciferase) by either HIV-1 Ba-L or HIV-1 IIIB. Compound cytotoxicity was also examined in the absence of virus addition.
HOS cells (expressing hCXCR4/hCCR5/hCD4/pHIV-LTR-luciferase) were harvested and diluted in Dulbeccos modified Eagles media supplemented with 2% FCS and non-essential amino acid to a concentration of 60,000 cells/ml. The cells were plated into 96-well plates (100 ul per well) and the plates were placed in a tissue culture incubator (37° C.; 5% CO2/95% air) for a period of 24 h.
Subsequently, 50 ul of the desired drug solution (4 times the final concentration) was added to each well and the plates were returned to the tissue culture incubator (37° C.; 5% CO2/95% air) for 1 h. Following this incubation 50 ul of diluted virus was added to each well (approximately 2 million RLU per well of virus). The plates were returned to the tissue culture incubator (37° C.; 5% CO2/95% air) and were incubated for a further 96 h.
Following this incubation the endpoint for the virally infected cultures was quantified following addition of Steady-Glo Luciferase assay system reagent (Promega, Madison, Wis.). Cell viability or non-infected cultures was measured using a CellTiter-Glo luminescent cell viability assay system (Promega, Madison, Wis.). All luminescent readouts are performed on a Topcount luminescence detector (Packard, Meridien, Conn.).

Structure (SMILES)	IC50 [nM]
CN(Cc1nc2cc(C(N)=O)ccc2[nH]1)C1CCCc2cccnc21 (stereo not drawn) [Example 37, 2-{[Methyl(5,6,7,8-tetrahydroquinolin-8-yl)amino]methyl}-1H-benzimidazole-5-carboxamide]	< 100
CN(Cc1nc2cc(C(=O)NCC3CCNCC3)ccc2[nH]1)C1CCCc2cccnc21 (stereo not drawn) [Example 38, 2-{[Methyl(5,6,7,8-tetrahydroquinolin-8-yl)amino]methyl}-N-(piperidin-4-ylmethyl)-1H-benzimidazole-5-carboxamide]	500 to 10000
CN(Cc1nc2cc(C(=O)NCc3cccnc3)ccc2[nH]1)C1CCCc2cccnc21 (stereo not drawn) [Example 39, 2-{[Methyl(5,6,7,8-tetrahydro-8-quinolinyl)amino]methyl}-N-(3-pyridinylmethyl)-1H-benzimidazole-5-carboxamide]	500 to 10000
CN(Cc1nc2cc(C(=O)NCc3ccncc3)ccc2[nH]1)C1CCCc2cccnc21 (stereo not drawn) [Example 40, 2-{[Methyl(5,6,7,8-tetrahydro-8-quinolinyl)amino]methyl}-N-(4-pyridinylmethyl)-1H-benzimidazole-5-carboxamide]	500 to 10000
CN(Cc1nc2cc(C(=O)NCC3CCCCC3)ccc2[nH]1)C1CCCc2cccnc21 (stereo not drawn) [Example 41, N-(Cyclohexylmethyl)-2-{[methyl(5,6,7,8-tetrahydro-8-quinolinyl)amino]methyl}-1H-benzimidazole-5-carboxamide]	500 to 10000
CN(Cc1nc2ccc(C(=O)N3CCC(CCN4CCCC4)CC3)cc2[nH]1)C1CCCc2cccnc21 (stereo not drawn) [Example 42, N-Methyl-N-{[5-({4-[2-(1-pyrrolidinyl)ethyl]-1-piperidinyl}carbonyl)-1H-benzimidazol-2-yl]methyl}-5,6,7,8-tetrahydro-8-quinolinamine]	500 to 10000
CCN(Cc1nc2ccc(C(=O)NCCc3cncn3C)cc2[nH]1)C1CCCc2cccnc21 (stereo not drawn) [Example 43, 2-{[ethyl(5,6,7,8-tetrahydro-8-quinolinyl)amino]methyl}-N-[2-(1-methyl-1H-imidazol-5-yl)ethyl]-1H-benzimidazole-5-carboxamide]	100 to 500
CCN(Cc1nc2cc(C(=O)NCCCCCN)ccc2[nH]1)C1CCCc2cccnc21 (stereo not drawn) [Example 44, N-(5-Aminopentyl)-2-{[ethyl(5,6,7,8-tetrahydro-8-quinolinyl)amino]methyl}-1H-benzimidazole-5-carboxamide]	500 to 10000
CCN(CC)CCN1CCN(C(=O)c2ccc3[nH]c(CN(CC)C4CCCc5cccnc54)nc3c2)CC1 (stereo not drawn) [Example 46, N-{[5-({4-[2-(Diethylamino)ethyl]-1-piperazinyl}carbonyl)-1H-benzimidazol-2-yl]methyl}-N-ethyl-5,6,7,8-tetrahydro-8-quinolinamine]	500 to 10000
CCN(Cc1nc2cc(C(=O)N3CCN(C)CC3)ccc2[nH]1)C1CCCc2cccnc21 (stereo not drawn) [Example 48, N-Ethyl-N-({5-[(4-methyl-1-piperazinyl)carbonyl]-1H-benzimidazol-2-yl}methyl)-5,6,7,8-tetrahydro-8-quinolinamine]	100 to 500
CCN(Cc1nc2cc(C(=O)N(C)CCN(C)C)ccc2[nH]1)C1CCCc2cccnc21 (stereo not drawn) [Example 49, N-[2-(Dimethylamino)ethyl]-2-{[ethyl(5,6,7,8-tetrahydro-8-quinolinyl)amino]methyl}-N-methyl-1H-benzimidazole-5-carboxamide]	500 to 10000
CCN(Cc1nc2cc(C(=O)NCCN(C)C)ccc2[nH]1)C1CCCc2cccnc21 (stereo not drawn) [Example 50, N-[2-(Dimethylamino)ethyl]-2-{[ethyl(5,6,7,8-tetrahydro-8-quinolinyl)amino]methyl}-1H-benzimidazole-5-carboxamide]	100 to 500
CNCCN(C)C(=O)c1ccc2[nH]c(CN(C)C3CCCc4cccnc43)nc2c1 (stereo not drawn) [Example 51, N-Methyl-N-[2-(methylamino)ethyl]-2-{[methyl(5,6,7,8-tetrahydro-8-quinolinyl)amino]methyl}-1H-benzimidazole-5-carboxamide]	< 100
CN(C)CCNC(=O)c1ccc2[nH]c(CN(C)C3CCCc4cccnc43)nc2c1 (stereo not drawn) [Example 52, N-[2-(Dimethylamino)ethyl]-2-{[methyl(5,6,7,8-tetrahydro-8-quinolinyl)amino]methyl}-1H-benzimidazole-5-carboxamide]	< 100
CNCCNC(=O)c1ccc2[nH]c(CN(C)C3CCCc4cccnc43)nc2c1 (stereo not drawn) [Example 53, N-[2-(Methylamino)ethyl]-2-{[methyl(5,6,7,8-tetrahydro-8-quinolinyl)amino]methyl}-1H-benzimidazole-5-carboxamide]	< 100
CN(Cc1nc2cc(C(=O)NCC(C)(C)CN)ccc2[nH]1)C1CCCc2cccnc21 (stereo not drawn) [Example 54, N-(3-Amino-2,2-dimethylpropyl)-2-{[methyl(5,6,7,8-tetrahydro-8-quinolinyl)amino]methyl}-1H-benzimidazole-5-carboxamide]	100 to 500
CN(C)CCN(C)C(=O)c1ccc2[nH]c(CN(C)C3CCCc4cccnc43)nc2c1 (stereo not drawn) [Example 55, N-[2-(Dimethylamino)ethyl]-N-methyl-2-{[methyl(5,6,7,8-tetrahydro-8-quinolinyl)amino]methyl}-1H-benzimidazole-5-carboxamide]	< 100
CN(Cc1nc2cc(C(=O)N3CCN(C(=O)OCc4ccccc4)CC3)ccc2[nH]1)C1CCCc2cccnc21 (stereo not drawn) [Example 56, Phenylmethyl 4-[(2-{[methyl(5,6,7,8-tetrahydro-8-quinolinyl)amino]methyl}-1H-benzimidazol-5-yl)carbonyl]-1-piperazinecarboxylate]	500 to 10000
CN(Cc1nc2cc(C(=O)N3CCNCC3)ccc2[nH]1)C1CCCc2cccnc21 (stereo not drawn) [Example 57, N-Methyl-N-{[5-(1-piperazinylcarbonyl)-1H-benzimidazol-2-yl]methyl}-5,6,7,8-tetrahydro-8-quinolinamine]	500 to 10000
CN1CCN(C(=O)c2ccc3[nH]c(CN(C)C4CCCc5cccnc54)nc3c2)CC1 (stereo not drawn) [Example 58, N-Methyl-N-({5-[(4-methyl-1-piperazinyl)carbonyl]-1H-benzimidazol-2-yl}methyl)-5,6,7,8-tetrahydro-8-quinolinamine]	100 to 500
CN(Cc1nc2cc(C(=O)N3CCN(Cc4ccccc4)CC3)ccc2[nH]1)C1CCCc2cccnc21 (stereo not drawn) [Example 59, N-Methyl-N-[(5-{[4-(phenylmethyl)-1-piperazinyl]carbonyl}-1H-benzimidazol-2-yl)methyl]-5,6,7,8-tetrahydro-8-quinolinamine]	500 to 10000
CN(Cc1nc2cccc(C(=O)NCCCCCN)c2[nH]1)C1CCCc2cccnc21 (stereo not drawn) [Example 61, N-(5-Aminopentyl)-2-{[methyl(5,6,7,8-tetrahydro-8-quinolinyl)amino]methyl}-1H-benzimidazole-4-carboxamide]	100 to 500
CN(Cc1nc2cccc(C(=O)N3CCN(Cc4ccccc4)CC3)c2[nH]1)C1CCCc2cccnc21 (stereo not drawn) [Example 62, N-Methyl-N-[(4-{[4-(phenylmethyl)-1-piperazinyl]carbonyl}-1H-benzimidazol-2-yl)methyl]-5,6,7,8-tetrahydro-8-quinolinamine]	500 to 10000
COCCNC(=O)c1cccc2nc(CN(C)C3CCCc4cccnc43)[nH]c12 (stereo not drawn) [Example 64, N-[2-(Methyloxy)ethyl]-2-{[methyl(5,6,7,8-tetrahydro-8-quinolinyl)amino]methyl}-1H-benzimidazole-4-carboxamide]	500 to 10000

From patent publication US20080045537A1, “Chemical Compounds” (priority 2004, published 2008)
